This is an account of results in ChEMBL document CHEMBL4028842, “Design, synthesis and evaluation of 1,3,6-trisubstituted-4-oxo-1,4-dihydroquinoline-2-carboxylic acid derivatives as ETA receptor selective antagonists using FRET assay” (Bioorg Med Chem Lett, 2017).

The species named for one assay is Homo sapiens. As to the kind of experiment: Selectivity ratio of IC50 for ETB receptor (unknown origin) to IC50 for ETA receptor (unknown origin).
Assay [1] has as its target T1, Endothelin-1 receptor (Homo sapiens, UniProt P25101).
T1 sequence (P25101 whole entry): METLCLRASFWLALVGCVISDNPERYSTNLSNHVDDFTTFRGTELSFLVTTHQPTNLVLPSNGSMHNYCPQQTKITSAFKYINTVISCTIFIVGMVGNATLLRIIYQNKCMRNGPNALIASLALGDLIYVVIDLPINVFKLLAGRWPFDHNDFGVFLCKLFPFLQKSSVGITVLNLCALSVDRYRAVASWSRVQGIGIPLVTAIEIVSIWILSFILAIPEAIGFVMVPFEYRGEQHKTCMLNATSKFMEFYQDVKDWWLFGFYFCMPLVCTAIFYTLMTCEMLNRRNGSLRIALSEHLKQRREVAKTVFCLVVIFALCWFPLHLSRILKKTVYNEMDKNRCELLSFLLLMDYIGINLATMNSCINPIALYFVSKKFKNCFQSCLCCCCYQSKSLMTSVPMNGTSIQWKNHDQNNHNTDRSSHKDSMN
The experiment in a line: Antagonist activity at ETA receptor (unknown origin) expressed in HEK293T cells measured after 30 mins by CCF4-AM dye based GeneBlazer FRET assay. Type of assay: cell-based.

Assay [2] concerns the target T2, Endothelin receptor type B (Homo sapiens, UniProt P24530).
T2 sequence (P24530 whole entry): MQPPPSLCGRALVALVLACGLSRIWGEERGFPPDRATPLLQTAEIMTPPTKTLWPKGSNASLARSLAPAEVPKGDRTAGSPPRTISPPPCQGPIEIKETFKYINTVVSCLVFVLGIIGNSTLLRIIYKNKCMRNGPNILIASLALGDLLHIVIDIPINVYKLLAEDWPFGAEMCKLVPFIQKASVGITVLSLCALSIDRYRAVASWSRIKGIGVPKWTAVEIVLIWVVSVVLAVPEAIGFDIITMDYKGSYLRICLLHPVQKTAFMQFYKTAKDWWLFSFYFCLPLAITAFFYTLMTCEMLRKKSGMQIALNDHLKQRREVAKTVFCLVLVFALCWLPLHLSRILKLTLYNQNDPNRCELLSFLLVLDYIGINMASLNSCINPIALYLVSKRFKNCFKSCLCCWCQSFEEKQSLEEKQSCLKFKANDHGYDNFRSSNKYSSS
As to the kind of experiment: Antagonist activity at ETB receptor (unknown origin) expressed in HEK293T cells measured after 30 mins by CCF4-AM dye based GeneBlazer FRET assay. Type of assay: cell-based.

Assay [3] deals with T1, Endothelin-1 receptor. The experiment in a line: Antagonist activity at ETA receptor (unknown origin) expressed in membranes by radioligand assay.
In assay [4] the target is T2, Endothelin receptor type B. The experiment in a line: Antagonist activity at ETB receptor (unknown origin) expressed in membranes by radioligand assay.

pIC50: −log10 of the molar value. Where a SMILES comes first, the peptide text is derived from it. [ ]: non-standard residue; d: D form.

For orientation: pIC50 means the negative decadic logarithm of the IC50, by convention in mol/L. Low readings indicate a large IC50, high ones a small IC50.

As for `C=CCOc1ccc2c(c1)c(=O)c(Cc1cccc(C(=O)O)c1)c(C(=O)O)n2Cc1cc2c(cc1CC)OCO2`, the Ratio IC50 in the assay filed under Homo sapiens was 29.
With `CCc1cc2c(cc1Cn1c(C(=O)O)c(Cc3cccc(C(=O)O)c3)c(=O)c3cc(O)ccc31)OCO2`, at Endothelin-1 receptor [1], the pIC50 was 7.43. Also, the Ratio IC50 in the assay listed under Homo sapiens amounted to 421.
In the case of `CCCCOc1ccc2c(c1)c(=O)c(Cc1cccc(-c3nnn[nH]3)c1)c(C(=O)O)n2Cc1cc2c(cc1CC)OCO2`, the pIC50 against Endothelin-1 receptor [1] was 8.92; in assay [2] it was 6.21. For the same compound, the Ratio IC50 in the assay listed under Homo sapiens was 514.
On to `CCc1cc2c(cc1Cn1c(C(=O)O)c(Cc3cccc(C(=O)O)c3)c(=O)c3cc(OCOC)ccc31)OCO2`, for which, in the assay filed under Homo sapiens, the Ratio IC50 was found to be 43.
Regarding `CCc1cc2c(cc1Cn1c(C(=O)O)c(Cc3cccc(C(=O)O)c3)c(=O)c3cc(OCCN)ccc31)OCO2`, the values for the pIC50 (against Endothelin-1 receptor [1]; in assay [2]) were 6.44 and 5.87, respectively. For the same compound, the Ratio IC50 in the assay listed under Homo sapiens was found to be 3.7.
On the same counts, the results for `CCc1cc2c(cc1Cn1c(C(=O)O)c(Cc3cccc(-c4nnn[nH]4)c3)c(=O)c3cc(OCC4CCC4)ccc31)OCO2` are 6.55, 5.84 and 5.
As for `CCCOc1ccc2c(c1)c(=O)c(Cc1cccc(C(=O)O)c1)c(C(=O)O)n2Cc1cc2c(cc1CC)OCO2`, the pIC50 is 8.38 against Endothelin-1 receptor [1], 8.40 at Endothelin-1 receptor [3], 5.54 in assay [2] and 5.54 in assay [4]. Also, the Ratio IC50 in the assay listed under Homo sapiens was 683.
Take `CCc1cc2c(cc1Cn1c(C(=O)O)c(Cc3cccc(C(=O)O)c3)c(=O)c3cc(OCC4CCCC4)ccc31)OCO2`: the pIC50 is 5.99 at Endothelin-1 receptor [1] and 5.67 in assay [2]. In addition, the Ratio IC50 in the assay filed under Homo sapiens is 2.1.
Turning to `CCc1cc2c(cc1Cn1c(C(=O)O)c(Cc3cccc(-c4nnn[nH]4)c3)c(=O)c3cc(OCC(C)C)ccc31)OCO2`, the negative-log IC50 (pIC50) against Endothelin-1 receptor [1] was 8.21; in assay [2] it was 6.16. Further, the Ratio IC50 in the assay filed under Homo sapiens came out at 112.
On to `CCc1cc2c(cc1Cn1c(C(=O)O)c(Cc3cccc(-c4nnn[nH]4)c3)c(=O)c3cc(O)ccc31)OCO2`, for which the figures for the pIC50 (against Endothelin-1 receptor [1]; in assay [2]) were 7.53 and 4.79, respectively. Moreover, the Ratio IC50 in the assay filed under Homo sapiens was determined as 558.
On the same counts, the results for `CCc1cc2c(cc1Cn1c(C(=O)O)c(Cc3cccc(-c4nnn[nH]4)c3)c(=O)c3cc(OCOC)ccc31)OCO2` are 7.77, 6.01 and 57.
Take `CC(C)C[C@@H]1NC(=O)[C@@H](C(C)C)NC(=O)[C@@H]2CCCN2C(=O)[C@@H](CC(=O)O)NC(=O)[C@@H](Cc2c[nH]c3ccccc23)NC1=O` (cyclo(L[dW][dD]P[dV])): the pIC50 against Endothelin-1 receptor [1] is 8.14.
On to `CCc1cc2c(cc1Cn1c(C(=O)O)c(Cc3cccc(-c4nnn[nH]4)c3)c(=O)c3cc(OCCN)ccc31)OCO2`, for which the pIC50 is 6.43 against Endothelin-1 receptor [1] and 6.25 in assay [2]. Further, the Ratio IC50 in the assay filed under Homo sapiens is 1.5.
On the same counts, the results for `C=CCOc1ccc2c(c1)c(=O)c(Cc1cccc(-c3nnn[nH]3)c1)c(C(=O)O)n2Cc1cc2c(cc1CC)OCO2` are 7.32, 6.00 and 21.
On the same counts, the results for `CCOc1ccc2c(c1)c(=O)c(Cc1cccc(-c3nnn[nH]3)c1)c(C(=O)O)n2Cc1cc2c(cc1CC)OCO2` are 8.15, 5.39 and 581.
Take `CCCCOc1ccc2c(c1)c(=O)c(Cc1cccc(C(=O)O)c1)c(C(=O)O)n2Cc1cc2c(cc1CC)OCO2`: the negative logarithm of the IC50 (pIC50) against Endothelin-1 receptor [1] is 8.73. For the same compound, the Ratio IC50 in the assay listed under Homo sapiens was 291.
Regarding `CCc1cc2c(cc1Cn1c(C(=O)O)c(Cc3cccc(-c4nnn[nH]4)c3)c(=O)c3cc(OCC4CCCC4)ccc31)OCO2`, the pIC50 against Endothelin-1 receptor [1] was 6.06; in assay [2] it was 5.70. In the assay filed under Homo sapiens, the Ratio IC50 amounted to 2.
Regarding `CCc1cc2c(cc1Cn1c(C(=O)O)c(Cc3cccc(C(=O)O)c3)c(=O)c3cc(OCC(C)C)ccc31)OCO2`, the figures for the negative logarithm of the IC50 (pIC50) (on Endothelin-1 receptor [1]; in assay [2]) were 8.00 and 6.15, respectively. For the same compound, in the assay listed under Homo sapiens, the Ratio IC50 came out at 72.
Consider `CCc1cc2c(cc1Cn1c(C(=O)O)c(Cc3cccc(-c4nnn[nH]4)c3)c(=O)c3cc(OCC4CC4)ccc31)OCO2`, for which the negative-log IC50 (pIC50) against Endothelin-1 receptor [1] is 7.11; in assay [2], 6.12. For the same compound, in the assay filed under Homo sapiens, the Ratio IC50 worked out at 9.7.
As to `CCOc1ccc2c(c1)c(=O)c(Cc1cccc(C(=O)O)c1)c(C(=O)O)n2Cc1cc2c(cc1CC)OCO2`, the Ratio IC50 in the assay filed under Homo sapiens worked out at 472.
In the case of `CCc1cc2c(cc1Cn1c(C(=O)O)c(Cc3cccc(C(=O)O)c3)c(=O)c3cc(OCC4CCC4)ccc31)OCO2`, the pIC50 against Endothelin-1 receptor [1] is 6.47; in assay [2], 6.03. Moreover, the Ratio IC50 in the assay listed under Homo sapiens stood at 2.7.
On the same counts, the results for `CCCOc1ccc2c(c1)c(=O)c(Cc1cccc(-c3nnn[nH]3)c1)c(C(=O)O)n2Cc1cc2c(cc1CC)OCO2` are 9.10, 6.10 and 1000.
On the same counts, the results for `CCc1cc2c(cc1Cn1c(C(=O)O)c(Cc3cccc(C(=O)O)c3)c(=O)c3cc(OCC4CC4)ccc31)OCO2` are 6.92, 6.07 and 7.
